{"source": "patent US20170009266A1", "about": "“PROCESS FOR THE ATTACHMENT OF A GALNAC MOIETY COMPRISING A (HETERO)ARYL GROUP TO A GLCNAC MOIETY, AND PRODUCT OBTAINED THEREBY” (SYNAFFIX B.V., priority 2014, published 2017)", "key": {"[1]": {"molecular_target": "T1, Gal-T1(Y289A) (Bos taurus, UniProt P08037, I205M/L206V/P187L/V158I/Y289A)", "T1 construct": "host or cells: CHO K1", "T1 sequence (P08037 74-402 V158I/P187L/I205M/L206V/Y289A)": "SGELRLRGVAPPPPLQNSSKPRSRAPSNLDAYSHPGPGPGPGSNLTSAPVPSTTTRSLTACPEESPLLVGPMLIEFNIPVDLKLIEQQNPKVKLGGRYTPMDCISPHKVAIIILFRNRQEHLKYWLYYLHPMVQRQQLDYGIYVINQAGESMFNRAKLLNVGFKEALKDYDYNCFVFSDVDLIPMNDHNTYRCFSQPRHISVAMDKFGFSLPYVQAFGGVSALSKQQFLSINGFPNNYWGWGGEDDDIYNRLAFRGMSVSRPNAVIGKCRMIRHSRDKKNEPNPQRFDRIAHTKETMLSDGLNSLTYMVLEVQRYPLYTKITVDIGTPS", "experiment": "Glycosyltransfer to trimmed trastuzumab with Gal-T1(Y289A) expressed in CHO", "format": "biochemical, bovine", "conditions": "trimmed trastuzumab 10 mg/mL; UDP derivative 5 mM; enzyme 0.5 mg/mL; pH 8.0, 30° C. overnight", "excerpt": "(§1) A set of Gal-T 1 mutants encoding residues 74-402 of bovine Gal-T 1 were transiently expressed in CHO K1 cells by Evitria (Zurich, Switzerland) which include the Gal-T1 single mutants Y289L (represented by SEQ ID NO: 26), Y289F (represented by SEQ ID NO: 27), Y289M (represented by SEQ ID NO: 28), Y289V (represented by SEQ ID NO: 29), Y289A (represented by SEQ ID NO: 30), and Y289G (represented by SEQ ID NO: 31), and the Gal-T1 double mutants Y289L,C342T (represented by SEQ ID NO: 32), and Y289M,C342T (represented by SEQ ID NO: 33). The mutants were purified using a cation exchange column (Source 15S HR16/10 column, GE Healthcare) as described above. Purified proteins were analyzed by SDS-PAGE.\n(§2) Trimmed trastuzumab (10 mg/mL, […] obtained by Endo S treatment of trastuzumab, was incubated with the 4-azido-3,5-difluorobenzoyl derivative of UDP-galactosamine (23, 5 mM) and one of the Gal-T1 single mutants Y289L, Y289M, Y289A or Y289G (expressed in CHO as described above) (0.5 mg/mL) in 10 mM MnCl2 and 25 mM Tris-HCl pH 8.0 at 30° C. overnight. Mass spectral analysis of the reduced sample indicated a partial conversion of the core GlcNac(Fuc)-substituted trastuzumab heavy chain (49504 Da) into product 30 (49818 to 49825 Da, 20 to 50% of total heavy chain depending on the Gal-T1 mutant used), resulting from transfer of 23 to core GlcNAc(Fuc)-substituted trastuzumab heavy chain. […]"}, "[2]": {"molecular_target": "T2, Gal-T1(Y289L) (Bos taurus, UniProt P08037, I205M/L206V/P187L/V158I/Y289L)", "T2 construct": "host or cells: CHO K1", "T2 sequence (P08037 74-402 V158I/P187L/I205M/L206V/Y289L)": "T1 sequence (P08037 74-402 V158I/P187L/I205M/L206V/Y289A) with A216L", "experiment": "Glycosyltransfer to trimmed trastuzumab with Gal-T1(Y289L) expressed in CHO", "format": "biochemical, bovine", "conditions": "trimmed trastuzumab 10 mg/mL; UDP derivative 5 mM; enzyme 0.5 mg/mL; pH 8.0, 30° C. overnight", "excerpt": "as §1, §2"}}, "note": "Positions count from the first letter of the chain named."}
{"smiles": "[N-]=[N+]=Nc1c(F)cc(C(=O)N[C@H]2[C@@H](OP(=O)(O)OP(=O)(O)OC[C@H]3O[C@@H](n4ccc(=O)[nH]c4=O)[C@H](O)[C@@H]3O)O[C@H](CO)[C@H](O)[C@@H]2O)cc1F", "note": "[Compound 23, 4-azido-3,5-difluorobenzoyl Derivative of UDP-GalNH2]", "values": [{"measurement": "observed conversion", "setting": "[1]", "value": "approximately 20%"}, {"measurement": "observed conversion", "setting": "[2]", "value": "approximately 30%"}]}
